Source: the NIST ThermoML archive (doi:10.1016/j.jct.2016.01.019)

Assay: refractive index (other wavelength) (dimensionless); xn = mol fraction of the nth substance listed
Details: 94.64 kPa, Liquid, Standard Abbe refractometry

OCCCO [propan-1,3-diol] + CC(O)CO
refractive index
Details | x2 = 0 | x2 = 0.0985 | x2 = 0.2023 | x2 = 0.3015 | x2 = 0.3961 | x2 = 0.5009 | x2 = 0.5961 | x2 = 0.6965 | x2 = 0.7974 | x2 = 0.8985
293.15 K, Wavelength=404.7 nm | 1.45177 | 1.45152 | 1.45117 | 1.45077 | 1.45025 | 1.44969 | 1.44909 | 1.44823 | 1.44738 | 1.44618
293.15 K, Wavelength=435.8 nm | 1.44842 | 1.44817 | 1.44786 | 1.44741 | 1.44688 | 1.44623 | 1.4456 | 1.44492 | 1.44401 | 1.44315
293.15 K, Wavelength=486.1 nm | 1.4444 | 1.44417 | 1.44386 | 1.44341 | 1.4429 | 1.44217 | 1.44132 | 1.44021 | 1.43935 | 1.43821
293.15 K, Wavelength=546.1 nm | 1.44112 | 1.44088 | 1.44041 | 1.44013 | 1.43961 | 1.43884 | 1.43806 | 1.43695 | 1.4362 | 1.43491
293.15 K, Wavelength=587.6 nm | 1.43939 | 1.43913 | 1.43875 | 1.4384 | 1.43788 | 1.43721 | 1.43623 | 1.43524 | 1.43439 | 1.43321
293.15 K, Wavelength=632.8 nm | 1.43781 | 1.43756 | 1.43729 | 1.43683 | 1.43632 | 1.43545 | 1.43467 | 1.43369 | 1.43253 | 1.43168
293.15 K, Wavelength=644 nm | 1.43746 | 1.43722 | 1.43699 | 1.43649 | 1.43597 | 1.43501 | 1.43435 | 1.43334 | 1.43219 | 1.43133
293.15 K, Wavelength=706.5 nm | 1.43577 | 1.43555 | 1.43506 | 1.43479 | 1.43428 | 1.43373 | 1.43315 | 1.43207 | 1.4311 | 1.42985
298.15 K, Wavelength=404.7 nm | 1.45037 | 1.44979 | 1.44932 | 1.4489 | 1.44849 | 1.44768 | 1.44694 | 1.44595 | 1.44515 | 1.44396
298.15 K, Wavelength=435.8 nm | 1.447 | 1.44654 | 1.44606 | 1.44553 | 1.44512 | 1.44432 | 1.4436 | 1.44261 | 1.44156 | 1.44059
298.15 K, Wavelength=486.1 nm | 1.44301 | 1.44246 | 1.44198 | 1.44156 | 1.44107 | 1.44037 | 1.43963 | 1.43868 | 1.43776 | 1.43667
298.15 K, Wavelength=546.1 nm | 1.43975 | 1.43919 | 1.43879 | 1.4383 | 1.43762 | 1.43712 | 1.43618 | 1.43541 | 1.43467 | 1.43341
298.15 K, Wavelength=587.6 nm | 1.43802 | 1.43746 | 1.437 | 1.43658 | 1.43619 | 1.43539 | 1.43469 | 1.43371 | 1.43285 | 1.43168
298.15 K, Wavelength=632.8 nm | 1.43645 | 1.4359 | 1.43532 | 1.43502 | 1.43462 | 1.43383 | 1.43322 | 1.43217 | 1.43136 | 1.43004
298.15 K, Wavelength=644 nm | 1.43611 | 1.43555 | 1.43498 | 1.43455 | 1.43428 | 1.43349 | 1.433 | 1.43183 | 1.43102 | 1.4298
298.15 K, Wavelength=706.5 nm | 1.43441 | 1.43388 | 1.43335 | 1.43299 | 1.4326 | 1.43191 | 1.43129 | 1.43036 | 1.42924 | 1.42812
303.15 K, Wavelength=404.7 nm | 1.44902 | 1.44844 | 1.44795 | 1.44749 | 1.44689 | 1.44619 | 1.44547 | 1.44435 | 1.44351 | 1.44237
303.15 K, Wavelength=435.8 nm | 1.44566 | 1.44521 | 1.44451 | 1.44394 | 1.44353 | 1.44285 | 1.44213 | 1.44101 | 1.44017 | 1.43903
303.15 K, Wavelength=486.1 nm | 1.44168 | 1.44133 | 1.44074 | 1.44019 | 1.43962 | 1.43892 | 1.43821 | 1.43713 | 1.43628 | 1.43516
303.15 K, Wavelength=546.1 nm | 1.43844 | 1.43797 | 1.43739 | 1.43695 | 1.43637 | 1.43567 | 1.43498 | 1.43387 | 1.43316 | 1.43194
303.15 K, Wavelength=587.6 nm | 1.43671 | 1.43615 | 1.43575 | 1.43524 | 1.43466 | 1.43396 | 1.43314 | 1.43216 | 1.43125 | 1.43024
303.15 K, Wavelength=632.8 nm | 1.43514 | 1.4344 | 1.43386 | 1.43339 | 1.43311 | 1.43232 | 1.43161 | 1.43065 | 1.42981 | 1.42869
303.15 K, Wavelength=644 nm | 1.4348 | 1.43405 | 1.43371 | 1.43304 | 1.43277 | 1.43207 | 1.43136 | 1.43031 | 1.42947 | 1.42834
303.15 K, Wavelength=706.5 nm | 1.43312 | 1.43234 | 1.43183 | 1.43136 | 1.43109 | 1.4304 | 1.42989 | 1.42884 | 1.428 | 1.42669
